From patent publication US8653062B2, “Compounds as receptor modulators with therapeutic utility” (Allergan, Inc., priority 2009, dated 2014)
pEC50: −log10 of the molar value.

Legend:
human S1P1 receptor = target: T1, human S1P1 receptor (Homo sapiens, UniProt P21453); test: GTP γ35S binding assay for S1P1 activity; type: biochemical; conditions: membranes of cells stably expressing S1P1 receptor, 30 min at 25° C.
T1 construct: expressed in transfected cells; membranes used
Experimental: Compounds were synthesized and tested for S1P1 activity using the GTP γ^35S binding assay. These compounds may be assessed for their ability to activate or block activation of the human S1P1 receptor in cells stably expressing the S1P1 receptor.
GTP γ^35S binding was measured in the medium containing (mM) HEPES 25, pH 7.4, MgCl2 10, NaCl 100, dithitothreitol 0.5, digitonin 0.003%, 0.2 nM GTP γ^35S, and 5 μg membrane protein in a volume of 150 μl. Test compounds were included in the concentration range from 0.08 to 5,000 nM unless indicated otherwise. Membranes were incubated with 100 μM 5′-adenylylimmidodiphosphate for 30 min, and subsequently with 10 μM GDP for 10 min on ice. Drug solutions and membrane were mixed, and then reactions were initiated by adding GTP γ^35S and continued for 30 min at 25° C. Reaction mixtures were filtered over Whatman GF/B filters under vacuum, and washed three times with 3 mL of ice-cold buffer (HEPES 25, pH7.4, MgCl2 10 and NaCl 100). Filters were dried and mixed with scintillant, and counted for ^35S activity using a β-counter. Agonist-induced GTP γ^35S binding was obtained by subtracting that in the absence of agonist. Binding data were analyzed using a non-linear regression method. In case of antagonist assay, the reaction mixture contained 10 nM S1P in the presence of test antagonist at concentrations ranging from 0.08 to 5000 nM.

female C57BL6 mice = test: Lymphopenia assay in mice; type: in vivo; conditions: after 5 hours, 10 mg/Kg subcutaneously, FIG. 1
Experimental: Test drugs are prepared in a solution containing 3% (w/v) 2-hydroxy propyl β-cyclodextrin (HPBCD) and 1% DMSO to a final concentration of 1 mg/ml, and subcutaneously injected to female C57BL6 mice (CHARLES RIVERS) weighing 20-25 g at the dose of 10 mg/Kg. Blood samples are obtained by puncturing the submandibular skin with a Goldenrod animal lancet at 5, 24, 48, 72, and 96 hrs post drug application. Blood is collected into microvettes (SARSTEDT) containing EDTA tripotassium salt. Lymphocytes in blood samples are counted using a HEMAVET Multispecies Hematology System, HEMAVET HV950FS (Drew Scientific Inc.). (Hale, J. et al Bioorg. & Med. Chem. Lett. 14 (2004) 3351).
A lymphopenia assay in mice; as previously described, was employed to measure the in vivo blood lymphocyte depletion after dosing with 1-{4-[(5-phenylpentyl)oxy]-3-(2-thienyl)benzyl}azetidine-3-carboxylic acid. This S1P1 agonist is useful for S1P-related diseases and exemplified by the lymphopenia in vivo response. […] Lymphocytes in blood samples were counted using a HEMAVET Multispecies Hematology System, HEMAVET HV950FS (Drew Scientific Inc.). […]

T1 sequence (P21453 whole entry): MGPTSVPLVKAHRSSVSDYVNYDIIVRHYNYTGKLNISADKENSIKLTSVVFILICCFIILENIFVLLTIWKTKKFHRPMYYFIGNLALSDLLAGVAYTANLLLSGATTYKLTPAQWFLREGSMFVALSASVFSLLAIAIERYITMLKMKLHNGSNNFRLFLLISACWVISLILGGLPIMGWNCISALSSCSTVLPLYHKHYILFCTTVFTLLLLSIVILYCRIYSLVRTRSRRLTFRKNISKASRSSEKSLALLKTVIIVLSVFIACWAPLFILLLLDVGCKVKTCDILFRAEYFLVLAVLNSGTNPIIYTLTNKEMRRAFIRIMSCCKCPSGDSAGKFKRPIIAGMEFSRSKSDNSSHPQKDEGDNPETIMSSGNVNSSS

| SMILES | pEC50 (human S1P1 receptor) | lymphocyte count (number of lymphocytes 10^3/μL blood) (female C57BL6 mice) |
| --- | --- | --- |
| O=C(O)C1CC(NCc2ccc(OCCCCCc3ccccc3)c(-c3cccs3)c2)C1 (stereo not drawn) [Compound 28, 3-({4-[(5-phenylpentyl)oxy]-3-(2-thienyl)benzyl}amino)cyclobutanecarboxylic acid] | 7.82 |  |
| O=C(O)C1CN(Cc2ccc(SCCCCCc3ccccc3)c(-c3cccs3)c2)C1 [Compound 26, 1-{4-[(5-phenylpentyl)thio]-3-(2-thienyl)benzyl}azetidine-3-carboxylic acid] | 6.74 |  |

Second part, led by results:

| pEC50 (human S1P1 receptor) | SMILES | lymphocyte count (number of lymphocytes 10^3/μL blood) (female C57BL6 mice) |
| --- | --- | --- |
| 7.89 | O=C(O)C1CN(Cc2ccc(OCCCCCc3ccccc3)c(C3=CCCC3)c2)C1 [Compound 15, 1-{3-cyclopent-1-en-1-yl-4-[(5-phenylpentyl)oxy]benzyl}azetidine-3-carboxylic acid] |  |
| 7.66 | O=C(O)C1CN(Cc2ccc(OCCCCCc3ccccc3)c(-n3cccn3)c2)C1 [Compound 25, 1-{4-[(5-phenylpentyl)oxy]-3-(1H-pyrazol-1-yl)benzyl}azetidine-3-carboxylic acid] |  |
| 7.82 | O=C(O)C1CN(Cc2ccc(OCCCCCc3ccccc3)c(-c3cccs3)c2)C1 [Compound 16, 1-{4-[(5-phenylpentyl)oxy]-3-(2-thienyl)benzyl}azetidine-3-carboxylic acid] | < 1 10^3/μL blood |
